Earlier results in patent US20100136119A1, “CONTROLLED-RELEASE PREPARATION CONTAINING CILOSTAZOL AND PROCESS FOR THE PREPARATION THEREOF” (AMOREPACIFIC CORPORATION, priority 2007, published 2010).

solubility in water: ≤ 1 µg/mL
Structure (SMILES): O=C1CCc2cc(OCCCCc3nnnn3C3CCCCC3)ccc2N1 [Cilostazol]
